Values of other authors in publication PMC8854719, “Phase 1A/1B dose-escalation and -expansion study to evaluate the safety, pharmacokinetics, food effects and antitumor activity of pamiparib in advanced solid tumours” (British Journal of Cancer, 2021).
Where two headings read alike, the source gives them in different places.

Experiments:
[1] = cited from earlier work
[2] = tested on: ovarian cancer; settings: Phase 2 studies, BRCAmut ovarian cancer after prior platinum-based chemotherapy; cited from earlier work
[3] = other monotherapy studies in advanced cancer (rucaparib: anaemia/decreased haemoglobin)
[4] = separate Phase 3 trials in ovarian cancer

| SMILES | Anaemia, Grade ≥3 [1, 3] [%] | Anaemia, Grade ≥3 [1, 4] [%] | Anaemia, any Grade [1, 4] [%] | ORR [2] [%] |
| --- | --- | --- | --- | --- |
| O=C(c1cc(Cc2n[nH]c(=O)c3ccccc23)ccc1F)N1CCN(C(=O)C2CC2)CC1 [olaparib] | 17 | 19 | 44 | 31.1 |
| NC(=O)c1cccc2cn(-c3ccc([C@@H]4CCCNC4)cc3)nc12 [niraparib] | 24 | 25 | 50 | 28.0 |
| CNCc1ccc(-c2[nH]c3cc(F)cc4c3c2CCNC4=O)cc1 [rucaparib] | 24.9 | 19 | 37 | 53.8 |
